Several values for one entry are separate records, joined by “and”; a condition that tells them apart may be missing. Equal entries are not always repeated.
Columns and labels:
[1] = tested on: secretions of VEGFA via the U87-MG; test: ELISA metering of VEGF in the supernatant of U87-MG; type: cell-based; conditions: for VEGF ELISA reading, Val1 / VEGF ELISA reading, Val2 / VEGF Mean / VEGF pg/mL1 / VEGF pg/mL2 / VEGF ELISA reading, Mean: supernatant of U87-MG (SN U87) after treatment; for VEGF ELISA reading, Mean: mean of Val1 and Val2
Source text: (§1) FIGS. 2A to 2C represent analysis results of soluble factors that occur in angiogenesis: • Supernatants of U87-MG cells were studied by proteome array (FIGS. 2A and 2B) for the research of proteins involved in angiogenesis, in the presence of sterile water, TSP-1 and the oligopeptide according to the invention. The secretions of VEGFA via the U87-MG in the medium after treatments with sterile water, TSP-1 and the oligopeptide according to the invention, were metered by ELISA from supernatants (FIG. 2C).

[2] = tested on: tumors from subcutaneous heterotopic grafts; test: Tumors from subcutaneous heterotopic grafts in nude mouse: Ki67, CD31, tumor volume; type: in vivo; conditions: for Tumor Volume D0: day 0 after injection of cancer cells, treatment in hydrogel injected on 21st day; for Tumor Volume D5: day 5 after injection of cancer cells; for Tumor Volume D5 / Tumor Volume D12 / Tumor Volume D17 / Tumor Volume D19: before treatment (21st day); for Tumor Volume D12: day 12 after injection of cancer cells; for Tumor Volume D17: day 17 after injection of cancer cells; for Tumor Volume D19: day 19 after injection of cancer cells; for Tumor Volume D21: day 21 after injection of cancer cells, day of treatment injection in hydrogel; for Tumor Volume D23: day 23 after injection of cancer cells, 48 hours after treatment in hydrogel; for Ki67 labeling quantification, Mean Center / CD31 labeling quantification, Center: tumor center
Source text: FIGS. 7A to 7E show the results of the analysis of the activity of the oligopeptide according to the invention on the proliferation, the vascularization, and the tumor growth in nude mice: • The images A, B and C of FIG. 7A show the immunolabeling of Ki-67 on tumor sections treated by H2O, TSP-1 or the oligopeptide according to the invention respectively. • The images D, E and F of FIG. 7A are magnifications (2×) of FIGS. A, B and C. • The images G, H and I of FIG. 7A represent the immunolabeling of CD31 on tumor sections that are treated by H2O, TSP-1 or the oligopeptide according to the invention respectively (the bars of the scale correspond to 500 μm). • The images J, K and L of FIG. 7A are magnifications (2×) of the images G, H and I.
The Ki-67 labeling was quantified under the various conditions using imageJ software, and comparisons between the center and the edge of tumors and between the conditions were carried out (FIG. 7B) by analysis of variances (ANOVA test). A value of p<0.05 is considered to be significant. * p<0.05 that is compared to the center of the same tumors; $ p<0.05 and $$ p<0.01 that is compared to the control. • The CD31 labeling was quantified under the various conditions using image J software, and comparisons between the center and the edge of tumors and between the conditions were carried out (FIG. 7C) by analysis of variances (ANOVA test). […] The injections of the treatments (hydrogel by itself, TSP-1 and the oligopeptide according to the invention (NX) were carried out on the 21st day (black arrow)). The comparison of the tumor sizes in comparison to the controls was carried out by analysis of variances (ANOVA test). ** p<0.01; *** p<0.001.
The experimentation on the mouse confirms the results that are obtained with the CAM model. In this case, the tumors were obtained from subcutaneous heterotopic grafts in the area of the leg of a nude mouse (FIGS. 7B, 7C and 7E).
Tables 6, 7 and 8: These tables correspond to the raw values that are obtained during various analyses conducted on the tumors that are treated in vivo. Analysis of the proliferation (Ki67 labeling quantification) (F), analysis of the vascularization (CD31 labeling quantification) (G) and analysis of the tumor growth as a function of time (measurement of the tumor volume) (H). “con,” “CTRL” and “hydrogel” treatments are control conditions, “TSP” and “TSP1” are the treatments with thrombospondin 1 (TSP-1), and NX is the treatment with the peptide according to the invention

[3] = tested on: U87-MG cells; test: Proteome array of supernatants of U87-MG cells (proteins involved in angiogenesis); type: cell-based; conditions: for DPPIV/CD 26, proteome array / Endoglin/CD105, proteome array / Endothelin-1 (ET-1), proteome array / IGFBP-1, proteome array / IGFBP-3, proteome array / IL-8/CXCL8, proteome array / MCP-1/CCL2, proteome array / NRG1-β1/HRG1-β1, proteome array / Pentraxin 3 (PTX3)/TSG-14, proteome array / Serpin E1/Pal-1, proteome array / TIMP-1, proteome array / TIMP-4, proteome array / TSP-1, proteome array / VEGF, proteome array / uPA, proteome array: supernatant of U87-MG after treatment
Source text: as §1

[4] = tested on: HBMEC cells; test: ELISA Cell Death test for induction of the apoptosis on the HBMEC cells; type: cell-based, human; conditions: basal medium
Method: The apoptosis process is accompanied by the fragmentation of DNA and thus generates soluble nucleosomes (cytoplasmic histones associated with fragmented DNA), which can be metered by an immunoenzymatic method, ELISA Cell Death Plus (Enzyme-Linked ImmunoSorbent Assay) Kit (Roche Molecular Diagnostics, France) according to the recommendations of the supplier. The HBMEC cells were inoculated in a 24-well plate at the density of 5.10^3 cells/wells and allowed to stand for 24 hours. The cells are cultivated in a basal medium, i.e., in the absence of growth factors, which is changed before they are exposed to various treatments for 24 hours. They are then recovered and then centrifuged with 200 g for 5 minutes. The cells are then counted, and then adjusted to 3.10^4 cells/mL in PBS. A new centrifuging with 200 g is carried out for 10 minutes. The supernatant is removed, and the cell pellet is taken up in 200 μl of lysis buffer before incubation for 30 minutes at ambient temperature. After a new centrifuging for 10 minutes at 1,400 rpm, 20 μL of supernatant is distributed in wells coated with streptavidin and each condition is carried out in duplicate. 80 μL of the immunoreagent solution is added into each well. […] The reaction is then halted by adding 100 μL of ABTS stop solution, and the results are then analyzed using a 405-nm plaque reader. […]

[5] = nude mouse tumor sections, tumor edge

Row | Substance | VEGF ELISA reading, Val1 [1] | VEGF ELISA reading, Val2 [1] | VEGF Mean [1] [pg/mL] | VEGF pg/mL1 [1] [pg/mL] | VEGF pg/mL2 [1] [pg/mL] | VEGF ELISA reading, Mean [1] | Tumor Volume D0 ([2]; nude mice) [mm^3] | Tumor Volume D5 ([2]; nude mice) [mm^3] | Tumor Volume D12 ([2]; nude mice) [mm^3] | Tumor Volume D17 ([2]; nude mice) [mm^3] | Tumor Volume D19 ([2]; nude mice) [mm^3] | Tumor Volume D21 ([2]; nude mice) [mm^3] | Tumor Volume D23 ([2]; nude mice) [mm^3] | Ki67 labeling quantification, Mean Center ([2]; nude mouse tumor sections) | Ki67 labeling quantification, Mean Edge [2, 5] | DPPIV/CD 26, proteome array [3] | Endoglin/CD105, proteome array [3] | Endothelin-1 (ET-1), proteome array [3] | IGFBP-1, proteome array [3] | IGFBP-3, proteome array [3] | also measured
1 | —W—S-G-W—S—S—C—S—R—S—C-G- (WSGWSSCSRSCG; Oligopeptide derived from SCO-Spondin) [NX] | 0.333 | 0.266 | 287 | 342.8 | 231.2 | 0.2995 | 0 | 46.46 | 39.04 | 70.6 | 78.82 | 135.6 | 68.03 | 181.7 | 49.75 | 0.08222 | 0 | 0.09418 | 1.165 | 0.1856 | VEGF-A in the supernatant of U87-MG (in words) [1]: reduction in VEGF-A; Cell proliferation, Ki-67 labeling (in words) ([2]; nude mice tumors): decrease in the Ki-67 labeling; CD31 labeling (in words) ([2]; nude mice tumors, periphery, compared with control): reduction in the CD31 labeling on the periphery; Tumor volume change (in words) ([2]; nude mice, 48 hours after the treatment): decrease in volume; CD31 labeling quantification, Center ([2]; nude mouse tumor sections, raw values): 26 and 40 and 28 and 38; MCP-1 secretion (in words) ([3]; medium of treated U87-MG cells): large increase in MCP-1; IL-8/CXCL8, proteome array [3]: 1.698; MCP-1/CCL2, proteome array [3]: 1.861; NRG1-β1/HRG1-β1, proteome array [3]: 0.1465; Pentraxin 3 (PTX3)/TSG-14, proteome array [3]: 0.6179; Serpin E1/Pal-1, proteome array [3]: 0.8632; TIMP-1, proteome array [3]: 3.888; TIMP-4, proteome array [3]: 2.15; TSP-1, proteome array [3]: 0.07983; VEGF, proteome array [3]: 1.021; uPA, proteome array [3]: 1.209; Protection of HBMEC from apoptosis (in words) [4]: protects the HBMEC human endothelial cells from the apoptosis at a level similar to the VEGF
2 | thrombospondin 1 [TSP, reference compound] | 0.5 | 0.518 | 636.2 | 621.2 | 651.2 | 0.509 | 0 | 33.55 | 29.93 | 49.88 | 81.07 | 112.5 | 101.9 | 200.3 | 228.2 | 0 | 0.09236 | 0.0994 | 1.724 | 0.5713 | CD31 labeling quantification, Center ([2]; nude mouse tumor sections, raw values, listed as TSP1): 66 and 53 and 63 and 56; CD31 labeling quantification, Edge ([2]; nude mouse tumor sections, tumor edge, raw values, listed as TSP1): 53 and 42 and 39 and 45; IL-8 secretion (in words) ([3]; medium of treated U87-MG cells): significant increase in IL-8; IL-8/CXCL8, proteome array [3]: 2.901; MCP-1/CCL2, proteome array [3]: 0.1534; NRG1-β1/HRG1-β1, proteome array [3]: 0; Pentraxin 3 (PTX3)/TSG-14, proteome array [3]: 0.7118; Serpin E1/Pal-1, proteome array [3]: 0.855; TIMP-1, proteome array [3]: 4.593; TIMP-4, proteome array [3]: 2.041; TSP-1, proteome array [3]: 0.08481; VEGF, proteome array [3]: 1.397; uPA, proteome array [3]: 1.489; Protection of HBMEC from apoptosis (in words) [4]: this effect is not observed

— US20190255144A1, “SPECIFIC OLIGOPEPTIDES AS ANTI-ANGIOGENIC DRUGS” (NEURONAX, priority 2014, published 2019)
